The values below come from patent US4029790A, “1-Benzoyl-2 or 4 [2-(4-phenyl-piperazino)-ethyl]-piperidines” (Centre European de Recherches Mauvernay, priority 1974, dated 1977).

One experiment has as its system Histaminic bronchospasm. Kind of experiment: Histaminic bronchospasm in the Guinea Pig (histamine aerosol technique). Type of experiment: in vivo. The conditions noted are these: for responders at 50 mg/kg: 50 mg/kg P.O., 45 minutes after treatment, 0.3% histamine aerosol; for ED50: read-out: Bronchospasmolytic activity ED50; for responders at 25 mg/kg: * Dose used: 25 mg/kg P.O.; for affinity for the bronchopulmonary system; activities (in words): summary of Table II.

The test system of experiment [1] is electrical stimulation of the upper laryngic nerve. As to the kind of experiment: Antitussive properties in the Cat (test of Domenjoz, electrical stimulation of the upper laryngic nerve). Type of experiment: in vivo. The conditions noted are these: for inhibition in vivo at 20 mg/kg / inhibition in vivo at 10 mg/kg: Felis catus, intraduodenal, read-out: Antitussive activity, Mean (percentage of inhibition); for inhibition in vivo at 20 mg/kg: 20 mg/kg I.D. The method, then:
The bronchospasmolytic and also antitussive activities of these compounds were investigated by means of the following tests:
2. Investigation of Antitussive Properties in the Cat
The test used was then of Domenjoz R.(Arch. Exp. Pathol. v. Pharmacol. 215, 1952).
The electrical stimulation of the upper laryngic nerve had the following characteristics: 2v, 6 Hz square waves of 5 msec - period of stimulation 10 to 20 seconds at intervals of 7 minutes 5 seconds. The activity of the product was evaluated as a percentage of inhibition.

Setting [2] is: Cavia porcellus, po, 0.75 h, read-out: Bronchospasmolytic activity, % activity.
Setting [3] is: Cavia porcellus, po, 0.75 h, P.O., linearisation method, ] [: 5% confidence limit of ED50.

Each structure is given as a SMILES string. Like-named read-outs stand apart in the source and are kept apart here.

On to `O=C(c1ccc(Cl)cc1)N1CCC(CCN2CCN(c3ccc(Cl)cc3)CC2)CC1` [Compound 10, 1-(4-chloro)benzolyl-4-{2-[4-(4-chloro)phenyl] -piperazinyl} -ethyl piperidine], for which, in the experiment on Histaminic bronchospasm (setting [2]), the responders at 50 mg/kg came out at 100%. The inhibition in vivo at 20 mg/kg in experiment [1] turned out to be 0%.
With `O=C(c1ccccc1)N1CCCCC1CCN1CCN(c2ccc(F)cc2)CC1` (stereo not drawn) [Compound 1], the responders at 50 mg/kg in the experiment on Histaminic bronchospasm (setting [2]) was determined as 60%. Besides, the inhibition in vivo at 10 mg/kg in experiment [1] (10 mg/kg I.D.) amounted to 73.7 ± 13.7%. Also, the “antitussive properties (in words)” value in experiment [1] (summary of Table II) is reported as “interesting antitussive properties”.
Broadly, the ED50 is the dose at which the effect has come halfway, by size or by number of responders. On to `CN(C)CCOC(c1ccccc1)c1ccccc1` [Diphenyl-dramine, Diphenyldramine, reference compound], for which the responders at 10 mg/kg in the experiment on Histaminic bronchospasm (Cavia porcellus, inhaled or nasal, 0.75 h, read-out: Bronchospasmolytic activity, % activity) stood at 93%. The ED50 in the experiment on Histaminic bronchospasm (Cavia porcellus, po, 0.75 h) came out at 4.5 mg/kg. Besides, the inhibition in vivo at 10 mg/kg in experiment [1] came out at 65.3 ± 9.5%.
Regarding `O=C(c1ccc(Cl)cc1)N1CCC(CCN2CCN(c3ccc(F)cc3)CC2)CC1` [Compound 13], the responders at 25 mg/kg in the experiment with Histaminic bronchospasm (setting [2]) came to 100%. In the experiment on Histaminic bronchospasm (setting [3]), the ED50 is 11.6 mg/kg. Moreover, the “affinity for the bronchopulmonary system; activities (in words)” value (“affinity for the bronchopulmonary system” below) with Histaminic bronchospasm was “particularly marked”. Besides, in experiment [1], the inhibition in vivo at 20 mg/kg was determined as 0%.
For the compound `O=C(c1ccc(F)cc1)N1CCCCC1CCN1CCN(c2ccc(F)cc2)CC1` (stereo not drawn) [Compound 4, 1-(4-fluoro)-benzoyl-2-{2-[4-(4-fluoro)phenyl]piperazinyl} ethyl piperidine], in the experiment with Histaminic bronchospasm (setting [2]), the responders at 50 mg/kg came out at 100%. Besides, the ED50 with Histaminic bronchospasm (setting [3]) was 5.7 mg/kg. The “affinity for the bronchopulmonary system” value in the experiment with Histaminic bronchospasm is reported as “particularly marked”. For the same compound, the inhibition in vivo at 10 mg/kg in experiment [1] (10 mg/kg I.D.) worked out at 58.6 ± 19.2%.
Consider `O=C(c1ccc(F)cc1)N1CCC(CCN2CCN(c3ccc(F)cc3)CC2)CC1` [Compound 14], for which the responders at 25 mg/kg with Histaminic bronchospasm (setting [2]) worked out at 100%. The ED50 with Histaminic bronchospasm (setting [3]) is 0.94 mg/kg. Further, the “affinity for the bronchopulmonary system” value in the experiment on Histaminic bronchospasm is listed as “particularly marked”. The inhibition in vivo at 20 mg/kg in experiment [1] turned out to be 44.7 ± 29.3%.
Take `COc1ccc2c(c1)C13CCCCC1C(C2)N(C)CC3` (stereo not drawn) [Dextrome-torphane, Dextrometorphane, reference compound]: the responders at 100 mg/kg in the experiment with Histaminic bronchospasm (setting [2]) was 0%. The inhibition in vivo at 10 mg/kg in experiment [1] was 76.2 ± 34%.
With `O=C(c1ccccc1)N1CCCCC1CCN1CCN(c2ccc(Cl)cc2)CC1` (stereo not drawn) [Compound 7], the responders at 50 mg/kg in the experiment on Histaminic bronchospasm (setting [2]) worked out at 60%. Besides, the inhibition in vivo at 20 mg/kg in experiment [1] amounted to 74%.
For `O=C(c1ccc(Cl)cc1)N1CCCCC1CCN1CCN(c2cccc(Cl)c2)CC1` (stereo not drawn) [Compound 9], the responders at 50 mg/kg with Histaminic bronchospasm (setting [2]) came out at 80%. The ED50 with Histaminic bronchospasm (setting [3]) came out at 13 mg/kg.
In the case of `O=C(c1ccc(F)cc1)N1CCC(CCN2CCN(c3ccc(Cl)cc3)CC2)CC1` [Compound 12], the responders at 50 mg/kg in the experiment on Histaminic bronchospasm (setting [2]) turned out to be 70%. In addition, the ED50 with Histaminic bronchospasm (setting [3]) was found to be 30.9 mg/kg. Besides, in experiment [1], the inhibition in vivo at 20 mg/kg is 0%.
Regarding `O=C(c1ccc(Cl)cc1)N1CCCCC1CCN1CCN(c2ccc(F)cc2)CC1` (stereo not drawn) [Compound 2], in the experiment with Histaminic bronchospasm (setting [2]), the responders at 50 mg/kg came to 100%. The median effective dose (ED50) in the experiment with Histaminic bronchospasm (setting [3]) worked out at 25 mg/kg. The “affinity for the bronchopulmonary system” value in the experiment with Histaminic bronchospasm is reported as “particularly marked”. Further, the inhibition in vivo at 10 mg/kg in experiment [1] (10 mg/kg I.D.) was found to be 0%.
